Reference: patent US20240417404A1, “CRYSTALLINE FORMS OF N-[4-[4-(4-MORPHOLINYL)-7H-PYRROLO[2,3-d]PYRIMIDIN-6-YL]PHENYL]-4-[[3(R)-[(1-OXO-2-PROPEN-1-YL)AMINO]-1-[sequence]]METHYL]-2-PYRIDINECARBOXAMIDE AS IRREVERSIBLE INHIBITORS OF MENIN-MLL INTERACTION” (BIOMEA FUSION, INC., priority 2023, published 2024)
“Also recorded” adds a separate entry of the source.

Key:
[1] = test system: DHL, THL, and DEL DLBCL cell lines; experiment: DLBCL cell line panel proliferation (Cell Titer Glo, four days); format: cell-based
Procedure: (§1) Compound A was tested against a THL cell line (VAL), and a DEL cell line (U2932). An expanded panel of DHL cell lines were tested for sensitivity to Compound A. Ex vivo patient samples of THL and MYC-amplified DLBCL were tested with Compound A. Sensitivity of THL and MYC-driven DLBCL in both in vitro and ex vivo models were compared with clinical reversible menin inhibitors. Compound A was tested against a panel of MM cell lines and ex vivo MM patient samples of p53del, 13qdel, and relapsed/refractory cases.
(§2) DLBCL cell line TOLEDO was cultured in the presence of Compound A or clinical reversible menin inhibitors for six and fourteen hours. Menin protein expression was reduced up to 60% at 1 μM by Compound A after fourteen hours compared to clinical reversible inhibitors at <20% at similar concentrations. Menin protein expression was measured by the Wes system and analyzed using the Compass software (automated western blotting, Protein Simple). Signal was normalized to GAPDH and referenced to DMSO control (FIG. 36E). DLBCL and MM cell lines were cultured with Compound A, bortezomib (PS-341), or DMSO for four days and cell proliferation was measured by Cell Titer Glo. Ex vivo studies of DLBCL and MM models were conducted by measurement of cell proliferation (Cell Titer Glo) after six days of treatment with Compound A, PS-341, or DMSO control.

MM1.S = experiment: MM cell line proliferation (Cell Titer Glo, four days): MM1.S; format: cell-based; conditions: t(14; 16), KRAS G12A
Procedure: as §2

[2] = test system: patient-derived THL and MYC-amplified DLBCL PDX samples; experiment: Ex vivo DLBCL patient-derived PDX samples (Cell Titer Glo, six days); format: cell-based, human; conditions: THL/R-CHOP-refractory and MYC amplification/R-EPOCH refractory clinical profiles
Procedure: as §1, §2

C=CC(=O)N[C@@H]1CCCN(Cc2ccnc(C(=O)Nc3ccc(-c4cc5c(N6CCOCC6)ncnc5[nH]4)cc3)c2)C1 [Compound A, N-[4-[4-(4-morpholinyl)-7H-pyrrolo[2,3-d]pyrimidin-6-yl]phenyl]-4-[[3(R)-[(1-oxo-2-propen-1-yl)amino]-1-piperidinyl]methyl]-2-pyridinecarboxamide]
cell lethality ([1]; DHL, THL, and DEL DLBCL cell lines): > 90% | growth inhibition of THL and DEL cell line models ([1]; VAL, U2932): complete growth inhibition | Average % Max Inhibition by Compound A (MM1.S): 99.5% | growth inhibition of ex vivo DLBCL patient samples [2]: complete growth inhibition; also recorded: highly effective
